Measured values: patent publication US7803600B2 (priority 2002, dated 2010)

What was measured:
COR-L23/R cells = test: Cell proliferation assay (MTT), COR-L23/R Multidrug Resistant Protein overexpressing; type: cell-based, human
Description: (§1) The activity of the compound of formula (I) on P-glycoprotein- or Multidrug Resistant Protein-expressing tumour cell lines and respective parental cells, K562/C1,000+ and K562A7, COR-L23/R and COR-L23, was compared to that of a known substrate for P-glycoprotein/Multidrug Resistant Protein, adriamycin.
(§2) All samples tested were dissolved in DMSO and further dilutions (typically 1:1,000) were made in culture medium, with final DMSO concentrations never exceeding 0.1% (v/v) in cell proliferation assays. MTT [3-(4,5-dimethylthiazol-2-yl)-2,5-diphenyltetrazolium bromide], MTS [3-(4,5-dimethylthiazol-2-yl)-5-(3-carboxymethoxyphenyl)-2-(4-sulfophenyl)-2H-tetrazolium inner salt] and PMS [phenazine methosulfate] were dissolved in phosphate-buffered saline (PBS).
(§3) MTT and MTS are both tetrazolium salts widely used in cell proliferation and toxicity tests. Upon entry in a viable cell, these tetrazolium salts are (bio)reduced to an intensely colored formazan derivative. In case of MTT, the formed formazan is crystalline and needs to be dissolved before colorimetric quantification. MTS needs an intermediate electron acceptor (PMS) for its efficient reduction into a soluble formazan end product and is used for suspension cell lines. […]

[1] = tested on: K562A7 parental leukemia cells; test: Cell proliferation assay (MTS/PMS), K562A7 parental; type: cell-based; conditions: Homo sapiens, 96 h, 4-day incubation, mean ± SE of at least two experiments, read-out: Sensitivity to cell killing, IC50
Description: as §1, §2, §3

K562/C1,000+ cells = test: Cell proliferation assay (MTS/PMS), K562/C1,000+ P-glycoprotein overexpressing; type: cell-based, human
Description: as §1, §2, §3

COR-L23 cells = test: Cell proliferation assay (MTT), COR-L23 parental; type: cell-based; conditions: Homo sapiens, 96 h, 4-day incubation, mean ± SE of at least two experiments, read-out: Sensitivity to cell killing, IC50
Description: as §1, §2, §3

COc1cccc2c1C(=O)c1c(O)c3c(c(O)c1C2=O)C[C@@](O)(C(=O)CO)C[C@@H]3O[C@H]1C[C@H](N)[C@H](O)[C@H](C)O1 [Adriamycin, adriamycin]
Resistance to cell killing as compared to parental cell line (COR-L23/R cells; COR-L23/R versus parental COR-L23): 20 fold
IC50 (COR-L23/R cells; Homo sapiens, 96 h, COR-L23/R Multidrug Resistant Protein overexpressing cells, 4-day incubation, mean ± SE of at least two experiments, read-out: Sensitivity to cell killing, IC50): 676 ± 261 nM
IC50 [1]: 26.8 ± 5.82 nM
IC50 (K562/C1,000+ cells; Homo sapiens, 96 h, K562/C1,000+ P-glycoprotein overexpressing cells, 4-day incubation, mean ± SE of at least two experiments, read-out: Sensitivity to cell killing, IC50): 7830 nM
Resistance to cell killing as compared to parental cell line (K562/C1,000+ cells; K562/C1,000+ versus parental K562A7): 250 fold
IC50 (COR-L23 cells): 36.6 ± 19.1 nM
